Tests used:
[1] = Antiradical activity assay (DPPH radical scavenging); details: DPPH in ethanol, 30 min in the dark at room temperature, absorbance 520 nm; mean [SD] of 2 experiments
Description: The radical scavenging activity of test compounds was measured as previously described using 2,2-diphenyl-1-picrylhydrazyl (DPPH) as a stable radical with slight modifications. Particular care was taken in the preparation of the control (DPPH reagent + ethanol as a diluent without test compounds). Controls with O.D. of 0.350-0.360 at 520 nm were deemed as acceptable to avoid variations in IC50 calculations. 1 mL of DPPH in ethanol ([…]) was mixed with 1 mL of the test compounds at the indicated concentrations or their diluent (ethanol). Each mixture was then shaken vigorously and held in the dark for 30 min at room temperature. The absorbance of DPPH at 520 nm was then measured. The radical scavenging activity was expressed in terms of % inhibition of DPPH absorbance: (1) % Inhibition=[(Acontrol−Atest)/(Acontrol)] ×100, where A control is the absorbance of the control (DPPH solution without test compound) and A test is the absorbance of the test sample (DPPH solution plus compound). Data are expressed as means ± SD of 2 independent experiments, each performed in triplicate (Table 1). IC50 values were calculated from a sigmoidal concentration-response curve fitting model with a variable slope on GraphPad Prism 5 software (GraphPad software, San Diego, California).
Radical scavenging activities of analogous cinnamoyl esters 8a–h, cinnamoyl amides 9a–h, caffeoyl esters 15a–h, and caffeoyl amides 16a–h were assayed using 2,2-diphenyl-1-picrylhydrazyl (DPPH) as a stable radical and are expressed as IC50 concentrations in Table 1.

5-LO [2] = target: T1, 5-LO (Homo sapiens, UniProt P09917); assay: 5-LO products biosynthesis assay in whole HEK293 cells stably transfected with 5-LO and FLAP; type: cell-based; set-up: expressed in transfected cells; details: whole HEK293 cells, 1 μM
T1 sequence (P09917 1-674): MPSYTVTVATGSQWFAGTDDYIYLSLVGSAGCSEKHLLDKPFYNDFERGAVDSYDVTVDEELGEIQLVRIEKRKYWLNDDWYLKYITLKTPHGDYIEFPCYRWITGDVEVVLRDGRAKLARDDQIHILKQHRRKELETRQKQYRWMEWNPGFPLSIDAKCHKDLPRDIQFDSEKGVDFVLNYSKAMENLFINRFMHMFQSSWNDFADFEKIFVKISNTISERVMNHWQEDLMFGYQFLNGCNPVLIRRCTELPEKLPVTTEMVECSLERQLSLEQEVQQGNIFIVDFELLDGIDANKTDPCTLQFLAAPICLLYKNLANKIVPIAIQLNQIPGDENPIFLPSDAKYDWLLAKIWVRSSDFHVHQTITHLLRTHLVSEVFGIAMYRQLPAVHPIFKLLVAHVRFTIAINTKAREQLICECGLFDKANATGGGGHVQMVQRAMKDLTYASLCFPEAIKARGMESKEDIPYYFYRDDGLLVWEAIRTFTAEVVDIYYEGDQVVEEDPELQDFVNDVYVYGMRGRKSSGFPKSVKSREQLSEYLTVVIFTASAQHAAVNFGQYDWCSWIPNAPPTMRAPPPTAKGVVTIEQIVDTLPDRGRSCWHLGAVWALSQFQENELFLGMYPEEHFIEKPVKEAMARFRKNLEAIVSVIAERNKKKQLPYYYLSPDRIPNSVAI
Description: HEK293 cells were cotransfected with a pcDNA3.1 vector expressing 5-LO and a pBUDCE4.1 vector expressing 5-LO activating protein (FLAP) using Polyfect reagent (QIAGEN, Mississauga, ON, Canada) according to the manufacturer's protocol. Stable transfections of HEK293 cells were obtained following cell culture in the presence of Geneticin and Zeocin (Invitrogen, Burlington, ON, Canada). The resulting stable double transfectants were propagated in culture and aliquots were frozen. Once thawed for a series of experiments, each aliquot of cells is cultured for a maximum of 6 weeks before being discarded.
For cell stimulation of 5-LO products, transfected HEK293 cells were collected following trypsinization, washed and the cell pellet was resuspended in Hank's balanced salt solution (HBSS) (Lonza, Walkersville, MD) containing 1.6 mM CaCl2 at a concentration of 5 × 10^5 cells mL^−1. Cells were preincubated with each compound at the indicated concentration for 5 min at 37°C. Cells were then stimulated for 15 minutes at 37°C with the addition of 10 μM calcium ionophore A23187 (Sigma-Aldrich, Oakville, ON, Canada) and 10 μM arachidonic acid (Cayman Chemical, Ann Arbor, MI). Stimulations were stopped and processed on RP-HPLC as described previously. Data are expressed as means ± SEM of 3 independent experiments, each performed in duplicate (Figures 2 and 3).

5-LO [3] = target: T1, 5-LO; set-up: expressed in transfected cells; method as in PMID 19152786; details: 10 μM; cited from earlier work
5-LO [4] = target: T1, 5-LO; assay: 5-LO products biosynthesis assay in thapsigargin-stimulated human PMNL; type: cell-based; set-up: 5-LO is highly expressed in PMNL; endogenous in cells; host or cells: human PMNL from peripheral blood; details: stimulated human PMNL, 1 μM
Description: Human PMNL were prepared from peripheral blood as described and were suspended in HBSS containing 1.6 mM CaCl2 (10^7 cells/mL) and preincubated with compounds for 5 min at 37°C in the presence of 1 U/mL of adenosine deaminase (Sigma-Aldrich, Oakville, ON, Canada). Cells were then stimulated for 15 min at 37°C with 1 μM thapsigargin (Sigma-Aldrich). Reactions were stopped by the addition of 0.5 volume of cold MeOH : CH3CN (1 : 1) and 50 ng of PGB2 as internal standard and samples were stored at −20°C until processing on octadecyl (C18) columns and RP-HPLC analysis as indicated above. Data are expressed as means ± SEM of 3 independent experiments, each performed in duplicate (Figures 4 and 5).
5-LO is highly expressed in PMNL and these cells are important producers of LTB4 [28, 32].

IC50 [1]: 13.4 µM
5-LO inhibition in stimulated human PMNL (in words) (5-LO [4]): roughly equipotent with Zileuton
SMILES: O=C(/C=C/c1ccccc1)OCCn1cc(COC(=O)/C=C/c2ccc(O)c(O)c2)nn1 [compound 4, reference compound]
5-LO inhibition in whole HEK293 cells (in words) (5-LO [2]): not significantly different than the control
5-LO inhibition in whole cells (5-LO [3]): near complete 5-LO inhibition

Reference: paper PMC4207410, “Clicked Cinnamic/Caffeic Esters and Amides as Radical Scavengers and 5-Lipoxygenase Inhibitors” (International Journal of Medicinal Chemistry, 2014)
